Results on 8 compounds are retold here after patent US7091311B2, “Peptides and compounds that bind to a receptor” (SmithKline Beecham Corporation, priority 1996, dated 2006).

Where “and” joins values, the source holds several entries; their conditions need not be identical. Equal entries are not always repeated. Where two headings read alike, the source gives them in different places. Where a SMILES comes first, the peptide text is derived from it.

For assay [1], the system named is marrow cells. Briefly: mouse marrow cells in liquid culture, AChE-staining megakaryocytes. Format: cell-based, Balb/C mice. The procedure:
To assess the feasibility of mice as a convenient test species, several in vitro experiments, designed to measure the activity of the test compounds on the mouse receptor, have been done. First, marrow cells, harvested from the femurs of 8 to 9 week one Balb/C mice, were incubated for 7 days in liquid culture with either rhuTPO or various concentrations of the test peptides. At the end of the incubation period, the cultures were concentrated by Cytospin, stained for acetylcholinesterase (AChE, a diagnostic of mouse megakaryocytes), and counted by microscopic analysis. One (1) nM rhuTPO gave rise to the outgrowth of very large (>40 um) non-adherent cells that stain for AChE. These cells appear to be mature megakaryocytes. From an initial seeding of 10^6 total marrow cells/ml (in 50 ml cultures) an estimated 1 to 2×10^6 megakaryocytes developed. This response to TPO was designated as “maximal”. Control cultures containing no added growth factors produced very few AChE-positive cells. […] This finding was the first evidence that this peptide family is active on the murine receptor. In a second experiment, marrow cells were harvested and cultured in semi-solid medium (methylcellulose) containing either no factors, 1 nM rhuTPO, or 10 uM Peptide A. After 7 days in culture, colonies of large cell (presumed to be megakaryocytes) were counted and grouped into small colonies (3–5 cells) or large colonies (greater than 6 cells). TPO and the test peptides both produced substantially more colonies of both sized than did the negative control cultures.

Assay [2] has as its system marrow cells. Briefly: marrow cells in semi-solid medium (methylcellulose), colonies of large cells. The format is cell-based, Balb/C mice. Conditions: 1 nM TPO; 7 days in methylcellulose; replicate cultures. The procedure:
To assess the feasibility of mice as a convenient test species, several in vitro experiments, designed to measure the activity of the test compounds on the mouse receptor, have been done. First, marrow cells, harvested from the femurs of 8 to 9 week one Balb/C mice, were incubated for 7 days in liquid culture with either rhuTPO or various concentrations of the test peptides. At the end of the incubation period, the cultures were concentrated by Cytospin, stained for acetylcholinesterase (AChE, a diagnostic of mouse megakaryocytes), and counted by microscopic analysis. One (1) nM rhuTPO gave rise to the outgrowth of very large (>40 um) non-adherent cells that stain for AChE. These cells appear to be mature megakaryocytes. From an initial seeding of 10^6 total marrow cells/ml (in 50 ml cultures) an estimated 1 to 2×10^6 megakaryocytes developed. This response to TPO was designated as “maximal”. Control cultures containing no added growth factors produced very few AChE-positive cells. […] In a second experiment, marrow cells were harvested and cultured in semi-solid medium (methylcellulose) containing either no factors, 1 nM rhuTPO, or 10 uM Peptide A. After 7 days in culture, colonies of large cell (presumed to be megakaryocytes) were counted and grouped into small colonies (3–5 cells) or large colonies (greater than 6 cells). […]

The target of a further assay is T1, TPO-R (Homo sapiens, UniProt P40238).
T1 construct: made in house
T1 sequence (P40238 26-491 limits assumed): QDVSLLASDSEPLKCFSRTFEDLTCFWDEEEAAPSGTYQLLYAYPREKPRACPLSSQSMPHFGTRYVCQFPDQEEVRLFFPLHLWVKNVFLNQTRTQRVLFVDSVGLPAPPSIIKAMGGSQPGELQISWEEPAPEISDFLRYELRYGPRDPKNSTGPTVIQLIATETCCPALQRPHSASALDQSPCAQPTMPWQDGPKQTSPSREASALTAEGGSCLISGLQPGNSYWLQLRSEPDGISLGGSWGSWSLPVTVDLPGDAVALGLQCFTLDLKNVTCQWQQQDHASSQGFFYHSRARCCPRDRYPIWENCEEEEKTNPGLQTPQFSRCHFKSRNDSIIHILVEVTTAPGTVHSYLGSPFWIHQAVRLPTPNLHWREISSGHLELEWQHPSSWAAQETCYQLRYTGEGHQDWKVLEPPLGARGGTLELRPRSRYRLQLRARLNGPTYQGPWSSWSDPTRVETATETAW
The experiment in a line: competition binding assay: MBP-TPO156 binding to immobilized TPO-R (ELISA). Conditions: read-out: IC50. The procedure: A variety of methods can be used to evaluate IC50 values. For example, an equilibrium binding ELISA assay, using either MBP-TPO or lacI-peptide tracer, was used to determine whether the peptides inhibit the binding of TPO to the extracellular domain of the TPO receptor. Typically, the IC50 value were determined using the free peptide. The IC50value can be determined using the free peptide, which optionally can be C-terminally amidated, or can be prepared as an ester or other carboxy amide.
Binding affinities of chemically synthesized peptides for TPO-R were measured in a competition binding assay. The wells of a microtiter plate were coated with 1 mg streptavidin, blocked with PBS/1% BSA, followed by 50 ng of biotinylated anti-receptor immobilizing antibody (Ab179). The wells were then treated with a 1:10 dilution of soluble TPO-R harvest. Various concentrations of peptide or peptide mimetic were mixed with a constant amount of a truncated form of TPO consisting of residues 1–156 fused to the C-terminus of maltose binding protein (MBP-TPO156). The peptide MBP-TPO156 mixtures were added to the TPO-R coated wells, incubated for 2 hours at 4° C. and then washed with PBS. The amount of MBP-TPO156 that was bound at equilibrium was measured by adding a rabbit anti-sera directed against MBP, followed by alkaline phosphatase conjugated goat anti-rabbit IgG. The amount of alkaline phosphatase in each well was then determined using standard methods.
The assay is conducted over a range of peptide concentrations and the results are graphed such that the y axis represents the amount of bound MBP-TPO156 and the x axis represents the concentration of peptide or peptide mimetic.
In general terms: In an ELISA, binding on a coated surface is turned into a signal by an enzyme label.

A further assay deals with T2, human TPO-R (Homo sapiens, UniProt P40238).
T2 construct: transfected with full length human TPO-R; expressed in transfected cells; host or cells: murine Ba/F3 cells
T2 sequence (P40238 26-635): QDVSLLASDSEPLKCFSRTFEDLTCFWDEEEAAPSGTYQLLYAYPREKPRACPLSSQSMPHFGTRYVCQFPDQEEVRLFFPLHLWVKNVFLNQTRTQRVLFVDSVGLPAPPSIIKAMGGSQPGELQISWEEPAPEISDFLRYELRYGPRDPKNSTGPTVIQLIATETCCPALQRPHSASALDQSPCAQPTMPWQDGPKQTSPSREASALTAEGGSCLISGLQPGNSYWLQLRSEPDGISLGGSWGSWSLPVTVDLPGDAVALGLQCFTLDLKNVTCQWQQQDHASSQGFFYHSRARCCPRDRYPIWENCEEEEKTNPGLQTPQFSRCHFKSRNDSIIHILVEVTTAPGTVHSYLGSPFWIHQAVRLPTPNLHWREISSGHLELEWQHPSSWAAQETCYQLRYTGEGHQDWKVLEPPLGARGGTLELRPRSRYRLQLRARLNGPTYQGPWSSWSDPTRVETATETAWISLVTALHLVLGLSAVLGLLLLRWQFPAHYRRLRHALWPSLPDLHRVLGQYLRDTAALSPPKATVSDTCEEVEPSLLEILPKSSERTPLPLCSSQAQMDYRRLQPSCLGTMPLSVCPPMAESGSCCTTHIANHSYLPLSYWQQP
Briefly: thrombopoietin dependent cell proliferation assay, TPO-R transfected Ba/F3 cells (MTT). The format is cell-based.

The target in another assay is T3, TPO receptor (Homo sapiens, UniProt P40238).
T3 sequence (P40238 26-635): T2 sequence (P40238 26-635)
Briefly: microphysiometer assay: rate of acidification of the extracellular medium in response to TPO receptor stimulation. Format: cell-based. Conditions: Table 9; read-out: EC50 (nM) Microphys.

The mark [3] stands for this setting: Table 9, read-out: EC50 (nM) Prolif.

Experimental for TPO receptor: In this example cyclized compounds were subjected to three assays. […] Finally, a microphysiometer (Molecular Devices Corp.) assay was performed. […] The ranges for EC50 are symbolically indicated as for IC50 described above.
Experimental for human TPO-R: Bioactivity of the peptides can be measured using a thrombopoietin dependent cell proliferation assay. Murine IL-3 dependent Ba/F3 cells were transfected with full length human TPO-R. In the absence of IL-3 (WEHI-3 conditioned media), these cells are dependent on TPO for proliferation.
The cells were grown in complete RPMI-10 media, containing 10% WEHI-3 conditioned media, then washed twice in PBS, resuspended in media which lacked WEHI-3 conditioned media, and added to wells containing dilutions of peptide or TPO at 2×10^4 cells/well. The cells were incubated for 48 hours at 37° C. in a humidified 5% Co2 atmosphere and metabolic activity was assayed by the reduction of MTT to formazan, with absorbance at 570 nm measured on an ELISA plate reader.

In the case of TPO (R & D): recombinant human TPO, the “megakaryocytes developed (estimated)” value in the assay with marrow cells [1] (1 nM rhuTPO, initial seeding 10^6 total marrow cells/ml in 50 ml cultures, 7 days) is reported as 1 to 2×10^6. For the same compound, the “Response (AChE-staining megakaryocytes)” value in the assay with marrow cells [1] (concentration tested 1 nM, 7 days liquid culture) is recorded as ““maximal””. Moreover, in the assay on marrow cells [2], the “large colonies, 6–12 large cells” value was 6 and 1 and 8 and 3; the “small colonies, 3–5 large cells” value is 15 and 12 and 16 and 13.

The IC50 is the concentration that gives 50% inhibition. For orientation: EC50 means the concentration needed to bring the measured effect to its halfway point. Regarding H-IEGPTLRQWLAARA-NH2, the IC50 on TPO-R (Table 9) is at most 500 nM. In addition, on human TPO-R (setting [3]), the EC50 is at most 500 nM.

As for “AF 12885 with streptavidin (SA): complexed biotinylated peptide: G G C A D G P T L R E W I S F C G G K (Biotin) preincubated with streptavidin, 4:1 molar ratio”, in the assay with human TPO-R (peptide preincubated with streptavidin at 4:1 molar ratio, FIG. 2), the “potency of pre-formed streptavidin complex relative to the free peptide” value is listed as “approximately 10 times”.

As to `CC[C@H](C)[C@H](N)C(=O)N[C@@H](CCC(=O)O)C(=O)NCC(=O)N1CCC[C@H]1C(=O)N[C@H](C(=O)N[C@@H](CC(C)C)C(=O)N[C@@H](CCCNC(=N)N)C(=O)N[C@@H](CCC(N)=O)C(=O)N[C@@H](Cc1c[nH]c2ccccc12)C(=O)N[C@@H](CC(C)C)C(=O)N[C@@H](C)C(=O)N[C@@H](C)C(=O)N[C@@H](CCCNC(=N)N)C(=O)N[C@@H](C)C(=O)NCCCC[C@H](NC(=O)CCNC(=O)[C@H](C)NC(=O)[C@H](CCCNC(=N)N)NC(=O)[C@H](C)NC(=O)[C@H](C)NC(=O)[C@H](CC(C)C)NC(=O)[C@H](Cc1c[nH]c2ccccc12)NC(=O)[C@H](CCC(N)=O)NC(=O)[C@H](CCCNC(=N)N)NC(=O)[C@H](CC(C)C)NC(=O)[C@@H](NC(=O)[C@@H]1CCCN1C(=O)CNC(=O)[C@H](CCC(=O)O)NC(=O)[C@@H](N)[C@@H](C)CC)[C@@H](C)O)C(N)=O)[C@@H](C)O`, the IC50 was at most 500 nM at TPO-R (Table 7, dimer compounds) and at most 500 nM on TPO-R (Table 9). Besides, the EC50 at human TPO-R (setting [3]) was at most 500 nM; on human TPO-R (Table 10, value outside parentheses, read-out: EC50 (nM) Cell Prolif.), at most 500 nM; at TPO receptor, at most 500 nM.

For the compound “S.A. alone: streptavidin alone [reference compound]”, the “Response (AChE-staining megakaryocytes)” value with marrow cells [1] (concentration tested 1000 nM (putative 1:4 complex), 7 days, maximal = compared to recombinant human TPO, 25–30% ACE staining cells) is listed as “none”.

`CC(C)C[C@H](NC(=O)[C@H](Cc1c[nH]c2ccccc12)NC(=O)[C@H](CCC(N)=O)NC(=O)[C@H](CCCNC(=N)N)NC(=O)[C@H](CC(C)C)NC(=O)[C@@H](NC(=O)[C@@H]1CCCN1C(=O)CNC(=O)[C@H](CSSC[C@H](NC(=O)[C@H](CCC(N)=O)NC(=O)[C@@H](NC(=O)[C@@H](N)CO)C(C)C)C(=O)NCC(=O)N1CCC[C@H]1C(=O)N[C@H](C(=O)N[C@@H](CC(C)C)C(=O)N[C@@H](CCCNC(=N)N)C(=O)N[C@@H](CCC(N)=O)C(=O)N[C@@H](Cc1c[nH]c2ccccc12)C(=O)N[C@@H](CC(C)C)C(=O)N[C@@H](C)C(=O)N[C@@H](C)C(=O)N[C@@H](CCCNC(=N)N)C(=O)N[C@@H](CC(N)=O)C(=O)N[C@@H](Cc1c[nH]cn1)C(=O)N[C@@H](CC(C)C)C(=O)N[C@@H](CO)C(N)=O)[C@@H](C)O)NC(=O)[C@H](CCC(N)=O)NC(=O)[C@@H](NC(=O)[C@@H](N)CO)C(C)C)[C@@H](C)O)C(=O)N[C@@H](C)C(=O)N[C@@H](C)C(=O)N[C@@H](CCCNC(=N)N)C(=O)N[C@@H](CC(N)=O)C(=O)N[C@@H](Cc1c[nH]cn1)C(=O)N[C@@H](CC(C)C)C(=O)N[C@@H](CO)C(N)=O` (HELM PEPTIDE1{S.V.Q.C.G.P.T.L.R.Q.W.L.A.A.R.N.H.L.S.[am]}|PEPTIDE2{S.V.Q.C.G.P.T.L.R.Q.W.L.A.A.R.N.H.L.S.[am]}$PEPTIDE1,PEPTIDE2,4:R3-4:R3$$$V2.0): at TPO-R (Table 7, dimer compounds), the IC50 was at most 500 nM.

For `CC[C@H](C)[C@@H]1NC(=O)[C@@H](N)CSSC[C@@H](C(N)=O)NC(=O)[C@H](C)NC(=O)[C@H](CCCNC(=N)N)NC(=O)[C@H](C)NC(=O)[C@H](C)NC(=O)[C@H](CC(C)C)NC(=O)[C@H](Cc2c[nH]c3ccccc23)NC(=O)[C@H](CCC(N)=O)NC(=O)[C@H](CCCNC(=N)N)NC(=O)[C@H](CC(C)C)NC(=O)[C@H]([C@@H](C)O)NC(=O)[C@@H]2CCCN2C(=O)CNC(=O)[C@H](CCC(=O)O)NC1=O` (HELM PEPTIDE1{C.I.E.G.P.T.L.R.Q.W.L.A.A.R.A.C.[am]}$PEPTIDE1,PEPTIDE1,1:R3-16:R3$$$V2.0), the EC50 on human TPO-R (setting [3]) was at most 500 nM.

Regarding `CC[C@H](C)[C@H](NC(=O)[C@H](Cc1c[nH]c2ccccc12)NC(=O)[C@H](CCC(=O)O)NC(=O)[C@H](CCCNC(=N)N)NC(=O)[C@H](CC(C)C)NC(=O)[C@@H](NC(=O)[C@@H]1CCCN1C(=O)CNC(=O)[C@H](CC(=O)O)NC(C)=O)[C@@H](C)O)C(=O)N[C@@H](CO)C(=O)N[C@@H](Cc1ccccc1)C(=O)N[C@@H](CSSC[C@H](NC(=O)[C@H](Cc1ccccc1)NC(=O)[C@H](CO)NC(=O)[C@@H](NC(=O)[C@H](Cc1c[nH]c2ccccc12)NC(=O)[C@H](CCC(=O)O)NC(=O)[C@H](CCCNC(=N)N)NC(=O)[C@H](CC(C)C)NC(=O)[C@@H](NC(=O)[C@@H]1CCCN1C(=O)CNC(=O)[C@H](CC(=O)O)NC(C)=O)[C@@H](C)O)[C@@H](C)CC)C(N)=O)C(N)=O` (HELM PEPTIDE1{[ac].D.G.P.T.L.R.E.W.I.S.F.C.[am]}|PEPTIDE2{[ac].D.G.P.T.L.R.E.W.I.S.F.C.[am]}$PEPTIDE1,PEPTIDE2,13:R3-13:R3$$$V2.0; C-terminus assumed), the IC50 at TPO-R (Table 7, dimer compounds) was at most 500 nM.
